Molecules are shown by their SMILES.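 In this assay, cells in 96-well plates receive the compound at five concentrations for 48 hours. Endpoints are linearly interpolated between the surrounding concentrations. The concentration for 50% growth inhibition is given as GI50.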 The source made the active and inactive calls. Cut-off read from the data, not from the text of the source: active = GI50 up to about 1.1 µM and inactive = higher.

The record followed here is ChEMBL document CHEMBL1201862, “PubChem BioAssay data set” (2004).

Some test systems named below: KM-20L2; M19-MEL; HOP-18; RXF 631; DMS-273; XF498; SNB-78; LXFL 529; BT-549.
What all share (assay): NCI tumour cell line growth inhibition, 48 h

For `COC(=O)C(=O)C(C(=O)C(=O)Nc1ccccc1C(N)=O)c1nc2ccc([N+](=O)[O-])cc2nc1O` (configuration not stated), the GI50 with KM-20L2, in the test with M19-MEL, with HOP-18, in the test on RXF 631, in the test with DMS-273 and with XF498 was > 100 µM (inactive) throughout. Moreover, the GI50 in the test with SNB-78 and in the test on LXFL 529 was > 100 µM (inactive) in each case.

For the compound `COc1ccc(/C=C\c2cc(OC)c(OC)c(OC)c2)cc1OCC(=O)O`, the GI50 with KM-20L2 was > 100 µM (inactive); in the test on BT-549, 13.5 µM (inactive); with M19-MEL it was 4.55 µM (inactive); with HOP-18, > 100 µM (inactive); with RXF 631, > 100 µM (inactive); in the test with DMS-273 it was 6.22 µM (inactive). The results for the GI50 in the test with SNB-78 and with LXFL 529 were 4.17 µM (inactive) and 6.55 µM (inactive), respectively.

Consider `O=C(CC1SC(Nc2ccccc2Cl)=NC1=O)Nc1ccc(Cl)cc1Cl` (configuration not stated), for which the GI50 in the test on KM-20L2, in the test with M19-MEL, in the test with HOP-18, with RXF 631, in the test on XF498 and in the test with SNB-78 was > 100 µM (inactive) in each case. Besides, the GI50 in the test with LXFL 529 was > 100 µM (inactive).

As for `CCc1cc2c(Nc3ccccc3)c3c(nc2s1)CCCC3`, the GI50 in the test with KM-20L2 was > 100 µM (inactive); with M19-MEL, 40.7 µM (inactive); with HOP-18, > 100 µM (inactive); in the test on RXF 631, 35.2 µM (inactive); with DMS-273 it was > 100 µM (inactive); in the test with XF498, 13.4 µM (inactive). For the same compound, the values for the GI50 with SNB-78 and with LXFL 529 were 28.9 µM (inactive) and 14.2 µM (inactive), respectively.

As to `CCOC(=O)Cc1nc2ccc3c(c2nc1O)C(=O)c1ccccc1C3=O`, the GI50 in the test on KM-20L2 is > 100 µM (inactive); with M19-MEL, 78.2 µM (inactive); in the test on HOP-18, 16 µM (inactive); in the test with RXF 631 it was 39.5 µM (inactive); in the test with DMS-273, 40.5 µM (inactive); in the test with XF498, 52.8 µM (inactive). Moreover, the GI50 with SNB-78 is 70.5 µM (inactive); in the test on LXFL 529, 47.9 µM (inactive).

For the compound `Cc1cnc[nH]c1=O`, the GI50 with KM-20L2, with M19-MEL, in the test on HOP-18, with RXF 631, in the test on DMS-273 and in the test on SNB-78 was > 100 µM (inactive) in each case. Also, in the test on LXFL 529, the GI50 is > 100 µM (inactive).

On to `Cc1cc(Cl)ccc1Nc1nc2c(s1)C(=O)c1ccccc1C2=O`, for which the GI50 is 18.9 µM (inactive) with KM-20L2; 1.53 µM (inactive) in the test with BT-549; 0.728 µM (active) in the test on M19-MEL; 3 µM (inactive) in the test on HOP-18; 6.46 µM (inactive) in the test with RXF 631; 2.52 µM (inactive) with DMS-273. Further, the GI50 in the test on SNB-78 was 14.5 µM (inactive); in the test with LXFL 529, 3.67 µM (inactive).

Take `CCC(C)SC1SCC2C(=O)N(C)C3(CC3C)C(=O)OCC(NC(=O)c3nc4ccccc4cc3O)C(=O)NC(C)C(=O)N(C)C1C(=O)N(C)C1(CC1C)C(=O)OCC(NC(=O)c1nc3ccccc3cc1O)C(=O)NC(C)C(=O)N2C` (configuration not stated): the GI50 is 0.000137 µM (active) with KM-20L2; 4.35e-05 µM (active) in the test on BT-549; 3.3e-05 µM (active) in the test with M19-MEL; 0.000232 µM (active) in the test with HOP-18; 0.000195 µM (active) with RXF 631; 2.3e-05 µM (active) with DMS-273. Further, the GI50 in the test on XF498 was 5.07e-05 µM (active); in the test on SNB-78 it was 0.01 µM (active); in the test on LXFL 529, 3.1e-05 µM (active).

For the compound `CSc1nc(NC2OCC(OC(C)=O)C(OC(C)=O)C2OC(C)=O)c(/N=C(\C)C(C)=O)c(=O)n1C` (configuration not stated), the GI50 in the test on KM-20L2, in the test on M19-MEL, in the test on HOP-18, with RXF 631, with DMS-273 and in the test with XF498 was > 100 µM (inactive) each time. Further, the GI50 with SNB-78 and with LXFL 529 was > 100 µM (inactive) in each case.

For `Cc1ccc(Oc2ccc([N+](=O)[O-])cc2[N+](=O)[O-])c(C)c1`, the GI50 in the test on KM-20L2 is > 10 µM (inactive); with M19-MEL, 51.3 µM (inactive); with RXF 631 it was 21.4 µM (inactive); in the test with DMS-273 it was 28.1 µM (inactive); with XF498, 42.1 µM (inactive); with SNB-78, 61.4 µM (inactive). The GI50 with LXFL 529 is 41 µM (inactive).

For `COc1ccc(C2N3CCCCC3[C@@H]3c4[nH]c5ccccc5c4CCN23)c(OC)c1` (some centres not stated), the GI50 in the test with KM-20L2 was 18.8 µM (inactive); with M19-MEL, 20 µM (inactive); in the test on HOP-18 it was > 100 µM (inactive); in the test on DMS-273, 16.4 µM (inactive); with XF498, 14.1 µM (inactive); in the test on SNB-78, 18.9 µM (inactive). Further, the GI50 in the test on LXFL 529 is 21.8 µM (inactive).

In the case of `Cc1ccc(C)c(NC(=O)CC2SC(Nc3ccccc3Cl)=NC2=O)c1` (configuration not stated), the GI50 in the test on KM-20L2 was > 100 µM (inactive); with M19-MEL, 94.4 µM (inactive); with HOP-18 it was > 100 µM (inactive); in the test on RXF 631, > 100 µM (inactive); in the test on DMS-273, > 100 µM (inactive); with XF498, > 100 µM (inactive). The GI50 in the test on SNB-78 is > 100 µM (inactive); with LXFL 529, 74.3 µM (inactive).

Turning to `COc1cccc(-c2cc(=O)c3cc(C)c(C)c(C(=O)O)c3o2)c1`, the GI50 with KM-20L2, in the test on M19-MEL, in the test with RXF 631, with DMS-273, with XF498 and in the test on SNB-78 was > 100 µM (inactive) in each case. Moreover, the GI50 in the test with LXFL 529 is > 100 µM (inactive).

For the compound `CCCCCCCCCCCCCCCCCc1nnc(N)o1`, the GI50 in the test on KM-20L2, in the test with M19-MEL, with RXF 631, in the test with DMS-273, with XF498 and with SNB-78 was > 100 µM (inactive) throughout. In the test on LXFL 529, the GI50 was > 100 µM (inactive).

For `O=C1OC(c2ccccc2)=N/C1=C\c1cc(Cl)ccc1Cl`, the GI50 was > 100 µM (inactive) in the test on KM-20L2; > 100 µM (inactive) in the test on M19-MEL; > 100 µM (inactive) with HOP-18; 25 µM (inactive) in the test with RXF 631; 44.5 µM (inactive) in the test with SNB-78; 28.5 µM (inactive) in the test on LXFL 529.

Regarding `C=CCn1cc(C(=O)NC(=O)NCCCCCOC(=O)CCCCCCCCCCC(=O)OCCCCCNC(=O)NC(=O)c2cn(CC=C)c(=O)n(C)c2=O)c(=O)n(C)c1=O`, the GI50 was > 100 µM (inactive) with KM-20L2; > 100 µM (inactive) in the test with M19-MEL; 71.8 µM (inactive) in the test on HOP-18; > 100 µM (inactive) in the test on DMS-273; > 100 µM (inactive) in the test on XF498; > 100 µM (inactive) in the test with SNB-78. In the test on LXFL 529, the GI50 is > 100 µM (inactive).

For the compound `Cn1cnc(S[C@H]2[C@H]3C(=O)C=C4S[C@H]5C[C@]42C2=C(N5)C(=O)c4[nH]cc5c4C2=[N+]3CC5)c1C[C@H](N)C(=O)O`, the GI50 in the test on KM-20L2 was 4.47 µM (inactive); in the test on M19-MEL, 8.73 µM (inactive); in the test on HOP-18, 52.1 µM (inactive); with DMS-273, 12.7 µM (inactive); in the test with XF498, 15.3 µM (inactive); with SNB-78 it was 20.9 µM (inactive). Moreover, in the test on LXFL 529, the GI50 was 14.1 µM (inactive).
